Assay results taken from patent US10774124B2, “Protease resistant mutants of stromal cell derived factor-1 in the repair of tissue damage” (THE BRIGHAM AND WOMEN'S HOSPITAL, INC., priority 2006, dated 2020).
Where two headings read alike, the source gives them in different places. No end group written: not given here.

Columns and labels:
[1] = target: CXC chemokine receptor 4 (CXCR4) (Homo sapiens, UniProt P61073); conditions: cited from earlier work
[2] = system: T lymphocytes and CEM cells; conditions: cited from earlier work
[3] = system: T lymphocytes and CEM cells; conditions: cited from earlier work; for induce chemotaxis: T lymphocytes and CEM cells; for fold less potent than SDF-1: chemoattractant activity, relative to native SDF-1; for EC50: read-out: half-maximal chemoattractant activity
MMP-2 [4] = target: T1, MMP-2 (Homo sapiens, UniProt P08253); experiment: MMP-2 cleavage, incubation product examined by SDS-PAGE; type: biochemical; conditions: for cleavage by MMP-2 (SDS-PAGE): 2 nmole peptide incubated with MMP-2 for 1 h at RT
T1 sequence (P08253 110-660): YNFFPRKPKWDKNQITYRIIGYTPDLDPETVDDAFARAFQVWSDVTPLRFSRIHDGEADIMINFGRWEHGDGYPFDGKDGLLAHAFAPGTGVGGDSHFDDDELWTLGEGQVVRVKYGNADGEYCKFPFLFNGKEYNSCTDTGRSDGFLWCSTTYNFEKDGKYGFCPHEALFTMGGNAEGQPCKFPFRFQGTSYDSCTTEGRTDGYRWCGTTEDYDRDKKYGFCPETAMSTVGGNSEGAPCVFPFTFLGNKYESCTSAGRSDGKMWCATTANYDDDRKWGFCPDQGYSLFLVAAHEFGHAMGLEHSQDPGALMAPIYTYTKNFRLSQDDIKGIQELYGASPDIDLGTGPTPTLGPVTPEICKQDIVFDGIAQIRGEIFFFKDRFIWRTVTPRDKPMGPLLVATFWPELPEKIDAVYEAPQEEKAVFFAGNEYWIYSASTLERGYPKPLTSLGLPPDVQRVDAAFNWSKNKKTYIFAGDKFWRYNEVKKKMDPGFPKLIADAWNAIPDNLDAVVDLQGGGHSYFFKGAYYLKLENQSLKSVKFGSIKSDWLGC
Description: The susceptibility of the peptides to cleavage by MMP-2 was determined by incubating the mutants with the enzyme for one hour and then examining the incubation product by SDS-PAGE.
Cleavage experiments of the peptides with MMP-2 were performed: 2 nmole of SDF-1 17AA, SDF-1(S4V) 17AA, and SDF-1(L5P) 17AA were incubated with MMP-2 for 1 h at RT. Proteins were run on an SDS-PAGE showing cleavage of SDF-1 17AA, but not of SDF-1(S4V) 17AA or SDF-1(L5P) 17AA. Thus, these truncated proteins may be useful therapeutically, as they are still bioactive and also MMP-2 resistant.

Jurkat T cells = experiment: Jurkat T cell migration assay; type: cell-based; conditions: for activity on T-cell migration: compared to native SDF-1; for activity in promoting T cell migration: concentration of 100 nM, versus unmutated SDF-1
Description: Cells from a 4-L growth were lysed in 300 ml lysis buffer (6M Guanidine, 20 mM phosphate (pH 7.8), 500 mM NaCl) and homogenized. Debris is collected by centrifugation at 3000 g. The first purification step consisted of capture of the poly-histidine tag present in the SUMO-SDF-1α fusion protein with Nickel-NTA. Nickel-NTA resin was washed with wash buffer (8M Urea, 500 mM NaCl, 20 mM phosphate (pH 6.2)) and the bound protein was eluted at pH 4. Further purification and oxidative refolding were performed on a Cation Exchange HPLC column. The sample was adjusted to binding buffer (8M Urea, 30 mM 2-mercaptoethanol, 1 mM EDTA, 50 mM Tris pH8) and loaded on the HPLC column. Refolding of Sumo-SDF-1 was performed on the column with a 2 h run of refolding buffer (50 mM Tris pH8, 75 mM NaCl, 0.1 mM reduced Glutathione and 0.1 mM oxidized Glutathione). Sumo-SDF-1 was eluted with a step gradient (0.5 to 1M NaCl) and concentrated. The SUMO-SDF-1 fusion protein was cleaved by Sumo Protease 1 (IU/50 μg protein) in 50 mM Tris pH 8.0, 500 mM NaCl. The sample was adjusted to 0.1% trifluoroacetic acid (TFA) and loaded on a C18 Reversed Phase HPLC column for the final purification step. The column was subjected to a linear gradient from 30 to 40% acetonitrile in 0.1% TFA. The fractions containing SDF-1 were lyophilized and resuspended. Activity of purified SDF-1 was tested by migration of Jurkat T-lymphocyte cell line.
The mutated forms of SDF-1 were examined in an assay of migration of Jurkat T cells at a concentration of 100 nM.
Migration experiments were performed with the Jurkat T-lymphocyte cell line. […] Therefore, if 500 times higher concentrations were used compared to full-length protein, the same migratory response of T-lymphocytes should be observed. […] This is a similar shift to that seen between native SDF-1 and SDF-1(S4V).

MMP-2 [5] = target: T1, MMP-2; experiment: Jurkat T-cell migration assay after MMP-2 incubation; type: cell-based

Sequence of CXC chemokine receptor 4 (CXCR4) (P61073 whole entry): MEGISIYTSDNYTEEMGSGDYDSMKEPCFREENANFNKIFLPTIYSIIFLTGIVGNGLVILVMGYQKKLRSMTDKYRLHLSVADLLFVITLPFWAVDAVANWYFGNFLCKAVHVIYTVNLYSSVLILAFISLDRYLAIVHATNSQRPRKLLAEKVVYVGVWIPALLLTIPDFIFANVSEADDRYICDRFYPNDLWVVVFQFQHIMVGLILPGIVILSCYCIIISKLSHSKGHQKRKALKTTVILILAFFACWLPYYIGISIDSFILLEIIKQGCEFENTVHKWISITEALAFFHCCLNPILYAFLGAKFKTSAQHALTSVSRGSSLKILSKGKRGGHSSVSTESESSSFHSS

For “1-8: peptide of N-terminal residues 1-8 of SDF-1 (KPVSLSYR; UniProt P48061 22-29, looked up, fragment)”, the “bind to CXCR4” value [1] is listed as “bind”, the induce intracellular calcium [2] is listed as “induce” and the induce chemotaxis [3] is listed as “induce”.
In the case of “1-9 dimer: dimer of the SDF-1 1-9 peptide (KPVSLSYRC; also: dimer; UniProt P48061 22-30, looked up, fragment)”, the “bind to CXCR4” value [1] is listed as “bind”, the induce intracellular calcium [2] is listed as “induce” and the induce chemotaxis [3] is listed as “induce”. The “fold less potent than SDF-1” value [3] was 100 fold and the EC50 [3] was 500 nM.
For “1-9: peptide of N-terminal residues 1-9 of SDF-1 (KPVSLSYRC; UniProt P48061 22-30, looked up, fragment)”, the “bind to CXCR4” value [1] is listed as “bind”, the induce intracellular calcium [2] is listed as “induce” and the induce chemotaxis [3] is listed as “induce”. For the same substance, the “fold less potent than SDF-1” value [3] was 3600 fold.
In the case of “1-17: peptide of N-terminal residues 1-17 of SDF-1 (KPVSLSYRCPCRFFESH; UniProt P48061 22-38, looked up, fragment)”, the “bind to CXCR4” value [1] is given as “bind”, the induce intracellular calcium [2] is given as “induce” and the induce chemotaxis [3] is given as “induce”. The “fold less potent than SDF-1” value [3] was 400 fold.
For “SCR: GIVGPL (SEQ ID NO:58), linker sequence, a scrambled version of the MMP-2 cleavage site MCS (listed as Homo sapiens)”, the “MMP-2 cleavage of linker sequence” value (MMP-2 [4]; rate compared with MCS) was “undergo MMP-2 cleavage, although at a slower rate than MCS”.
With “SDF-1 17AA: KPVSLSYRCPCRFFESH (SEQ ID 64), first 17 amino acids of native SDF-1 (listed as Homo sapiens)” the “cleavage by MMP-2 (SDS-PAGE)” value (MMP-2 [4]) was “cleavage” and the “times less potent than native SDF-1” value (Jurkat T cells; Jurkat T-lymphocyte migration) was 500 times.
For “SDF-1(L5E): SDF-1 mutant, leucine at position 5 changed to glutamic acid”, the “activity on T-cell migration” value (Jurkat T cells) was “minimal activity” and the “activity in promoting T cell migration” value (Jurkat T cells) was “greatly reduced”.
With “SDF-1(L5P) 17AA: KPVSPSYRCPCRFFESH (SEQ ID 66) (listed as Homo sapiens)” the “cleavage by MMP-2 (SDS-PAGE)” value (MMP-2 [4]) was “not” and the “times less potent than SDF-1 17AA without mutation” value (Jurkat T cells; Jurkat T-lymphocyte migration) was “three times less potent”.
For “SDF-1(L5P): SDF-1 mutant, leucine at position 5 changed to proline, SEQ ID NO:56”, the “activity on T-cell migration” value (Jurkat T cells) was “bioactivity comparable to native SDF-1” and the “activity in promoting T cell migration” value (Jurkat T cells) was “retained most of the activity of unmutated SDF-1”.
For “SDF-1(L5W): SDF-1 mutant, leucine at position 5 changed to tryptophan”, the “activity on T-cell migration” value (Jurkat T cells) was “minimal activity” and the “activity in promoting T cell migration” value (Jurkat T cells) was “greatly reduced”.
With “SDF-1(S4V) 17AA: KPVVLSYRCPCRFFESH (SEQ ID 65) (listed as Homo sapiens)” the “cleavage by MMP-2 (SDS-PAGE)” value (MMP-2 [4]) was “not” and the “times less potent than SDF-1 17AA without mutation” value (Jurkat T cells; Jurkat T-lymphocyte migration) was “three times less potent”.
With “SDF-1(S4V): SDF-1 mutant, serine at position 4 changed to valine, SEQ ID NO:54” the “chemoattractant activity after MMP-2 incubation” value (“chemoattractant activity” below) (MMP-2 [5]) was “not”, the “chemoattractant activity” value (MMP-2 [5]; listed as S4V variant of SDF-1) was “resistant to activation by MMP-2” and the “activity on T-cell migration” value (Jurkat T cells) was “bioactivity comparable to native SDF-1”. For the same substance, the “activity in promoting T cell migration” value (Jurkat T cells) was “retained most of the activity of unmutated SDF-1”.
For stromal cell derived factor-1 [SDF-1], the “chemoattractant activity” value (MMP-2 [5]) is listed as “reduce the chemoattractant activity”, the “cleavage by MMP-2 (positional shift on SDS-PAGE)” value (MMP-2 [4]; incubated with the enzyme for one hour) is listed as “positional shift indicative of cleavage” and the EC50 [3] is listed as 5 nM.
